# Experimental data taken from PubChem BioAssay (NCI).
#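 Interpolation was linear, between the two tested concentrations surrounding the appropriate level; five concentrations were tested over 48 hours in 96-well plates. GI50: concentration for 50% inhibition of growth. Definition used: TGI = concentration required for complete inhibition of growth.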
# Key:
# Experiment in all cases: NCI anticancer screen, dose series, 48 h
# 786-0 renal = tested on: 786-0 renal
# A498 renal = tested on: A498 renal
# A549 NSCLC = tested on: A549 NSCLC
# ACHN renal = tested on: ACHN renal
# BT-549 breast = tested on: BT-549 breast
# CAKI-1 renal = tested on: CAKI-1 renal
# CCRF-CEM leukemia = tested on: CCRF-CEM leukemia
# COLO 205 colon = tested on: COLO 205 colon
# DU-145 prostate = tested on: DU-145 prostate
# EKVX NSCLC = tested on: EKVX NSCLC
# HCC-2998 colon = tested on: HCC-2998 colon
# HCT-116 colon = tested on: HCT-116 colon
# HCT-15 colon = tested on: HCT-15 colon
# HL-60(TB) leukemia = tested on: HL-60(TB) leukemia
# HOP-62 NSCLC = tested on: HOP-62 NSCLC
# HOP-92 NSCLC = tested on: HOP-92 NSCLC
# HS 578T breast = tested on: HS 578T breast
# HT29 colon = tested on: HT29 colon
# IGROV1 ovarian = tested on: IGROV1 ovarian
# K-562 leukemia = tested on: K-562 leukemia
# KM12 colon = tested on: KM12 colon
# LOX IMVI melanoma = tested on: LOX IMVI melanoma
# M14 melanoma = tested on: M14 melanoma
# MALME-3M melanoma = tested on: MALME-3M melanoma
# MCF7 breast = tested on: MCF7 breast
# MDA-MB-231 breast = tested on: MDA-MB-231 breast
# MDA-MB-435 = tested on: MDA-MB-435
# MDA-MB-468 breast = tested on: MDA-MB-468 breast
# MOLT-4 leukemia = tested on: MOLT-4 leukemia
# NCI-H226 lung = tested on: NCI-H226 lung
# NCI-H23 lung = tested on: NCI-H23 lung
# NCI-H460 lung = tested on: NCI-H460 lung
# NCI-H522 lung = tested on: NCI-H522 lung
# NCI/ADR-RES ovarian = tested on: NCI/ADR-RES ovarian
# OVCAR-3 ovarian = tested on: OVCAR-3 ovarian
# OVCAR-4 ovarian = tested on: OVCAR-4 ovarian
# OVCAR-5 ovarian = tested on: OVCAR-5 ovarian
# OVCAR-8 ovarian = tested on: OVCAR-8 ovarian
# PC-3 prostate = tested on: PC-3 prostate
# RXF 393 renal = tested on: RXF 393 renal
# SF-268 CNS = tested on: SF-268 CNS
# SF-295 CNS = tested on: SF-295 CNS
# SF-539 CNS = tested on: SF-539 CNS
# SK-MEL-2 melanoma = tested on: SK-MEL-2 melanoma
# SK-MEL-28 melanoma = tested on: SK-MEL-28 melanoma
# SK-MEL-5 melanoma = tested on: SK-MEL-5 melanoma
# SK-OV-3 ovarian = tested on: SK-OV-3 ovarian
# SN12C renal = tested on: SN12C renal
# SNB-19 CNS = tested on: SNB-19 CNS
# SNB-75 CNS = tested on: SNB-75 CNS
# SR leukemia = tested on: SR leukemia
# SW-620 colon = tested on: SW-620 colon
# T-47D breast = tested on: T-47D breast
# TK-10 renal = tested on: TK-10 renal
# U251 CNS = tested on: U251 CNS
# UACC-257 melanoma = tested on: UACC-257 melanoma
# UACC-62 melanoma = tested on: UACC-62 melanoma
# UO-31 renal = tested on: UO-31 renal
compound,measurement,setting,value
O=C(NCCCCC(c1ccc(F)cc1)c1ccc(F)cc1)Nc1ccc([N+](=O)[O-])c(C(F)(F)F)c1,GI50,786-0 renal,2.26 µM
same,TGI,786-0 renal,8.86 µM
same,GI50,A498 renal,1.84 µM
same,TGI,A498 renal,5.51 µM
same,GI50,A549 NSCLC,3.19 µM
same,TGI,A549 NSCLC,12.6 µM
same,GI50,ACHN renal,1.63 µM
same,TGI,ACHN renal,6.81 µM
same,GI50,BT-549 breast,1.86 µM
same,TGI,BT-549 breast,4.23 µM
same,GI50,CAKI-1 renal,2.07 µM
same,TGI,CAKI-1 renal,6.5 µM
same,GI50,CCRF-CEM leukemia,0.674 µM
same,TGI,CCRF-CEM leukemia,8.27 µM
same,GI50,COLO 205 colon,1.73 µM
same,TGI,COLO 205 colon,3.24 µM
same,GI50,DU-145 prostate,3.53 µM
same,TGI,DU-145 prostate,15.7 µM
same,GI50,EKVX NSCLC,2.3 µM
same,TGI,EKVX NSCLC,8.53 µM
same,GI50,HCC-2998 colon,2.61 µM
same,TGI,HCC-2998 colon,11.5 µM
same,GI50,HCT-116 colon,0.521 µM
same,TGI,HCT-116 colon,2.81 µM
same,GI50,HCT-15 colon,1.8 µM
same,TGI,HCT-15 colon,6.63 µM
same,GI50,HL-60(TB) leukemia,3.19 µM
same,TGI,HL-60(TB) leukemia,> 100 µM
same,GI50,HOP-62 NSCLC,1.99 µM
same,TGI,HOP-62 NSCLC,4.62 µM
same,GI50,HOP-92 NSCLC,1.03 µM
same,TGI,HOP-92 NSCLC,5.11 µM
same,GI50,HS 578T breast,2.22 µM
same,TGI,HS 578T breast,6.22 µM
same,GI50,HT29 colon,3.22 µM
same,TGI,HT29 colon,13.4 µM
same,GI50,IGROV1 ovarian,2.71 µM
same,TGI,IGROV1 ovarian,12.5 µM
same,GI50,K-562 leukemia,0.561 µM
same,TGI,K-562 leukemia,> 100 µM
same,GI50,KM12 colon,2.07 µM
same,TGI,KM12 colon,7.77 µM
same,GI50,LOX IMVI melanoma,1.69 µM
same,TGI,LOX IMVI melanoma,3.37 µM
same,GI50,M14 melanoma,2.08 µM
same,TGI,M14 melanoma,6.63 µM
same,GI50,MALME-3M melanoma,1.84 µM
same,TGI,MALME-3M melanoma,4.64 µM
same,GI50,MCF7 breast,2.14 µM
same,TGI,MCF7 breast,10.1 µM
same,GI50,MDA-MB-231 breast,1.82 µM
same,TGI,MDA-MB-231 breast,3.72 µM
same,GI50,MDA-MB-435,2.15 µM
same,TGI,MDA-MB-435,7.58 µM
same,GI50,MDA-MB-468 breast,0.559 µM
same,TGI,MDA-MB-468 breast,3.08 µM
same,GI50,MOLT-4 leukemia,2.81 µM
same,TGI,MOLT-4 leukemia,> 100 µM
same,GI50,NCI-H226 lung,2.16 µM
same,TGI,NCI-H226 lung,6.55 µM
same,GI50,NCI-H23 lung,2.27 µM
same,TGI,NCI-H23 lung,8.51 µM
same,GI50,NCI-H460 lung,1.61 µM
same,TGI,NCI-H460 lung,5.54 µM
same,GI50,NCI-H522 lung,1.74 µM
same,TGI,NCI-H522 lung,5.17 µM
same,GI50,NCI/ADR-RES ovarian,2.36 µM
same,TGI,NCI/ADR-RES ovarian,8.68 µM
same,GI50,OVCAR-3 ovarian,1.52 µM
same,TGI,OVCAR-3 ovarian,5.31 µM
same,GI50,OVCAR-4 ovarian,2.81 µM
same,TGI,OVCAR-4 ovarian,15.8 µM
same,GI50,OVCAR-5 ovarian,2.28 µM
same,TGI,OVCAR-5 ovarian,7.89 µM
same,GI50,OVCAR-8 ovarian,3.24 µM
same,TGI,OVCAR-8 ovarian,16 µM
same,GI50,PC-3 prostate,0.415 µM
same,TGI,PC-3 prostate,8.72 µM
same,GI50,RXF 393 renal,2.23 µM
same,TGI,RXF 393 renal,6.25 µM
same,GI50,SF-268 CNS,2.92 µM
same,TGI,SF-268 CNS,12.4 µM
same,GI50,SF-295 CNS,0.972 µM
same,TGI,SF-295 CNS,3.73 µM
same,GI50,SF-539 CNS,1.92 µM
same,TGI,SF-539 CNS,4.01 µM
same,GI50,SK-MEL-2 melanoma,1.92 µM
same,TGI,SK-MEL-2 melanoma,4.07 µM
same,GI50,SK-MEL-28 melanoma,3.03 µM
same,TGI,SK-MEL-28 melanoma,11.5 µM
same,GI50,SK-MEL-5 melanoma,1.59 µM
same,TGI,SK-MEL-5 melanoma,2.97 µM
same,GI50,SK-OV-3 ovarian,2.26 µM
same,TGI,SK-OV-3 ovarian,6.05 µM
same,GI50,SN12C renal,1.98 µM
same,TGI,SN12C renal,6.52 µM
same,GI50,SNB-19 CNS,2.91 µM
same,TGI,SNB-19 CNS,16.1 µM
same,GI50,SNB-75 CNS,1.65 µM
same,TGI,SNB-75 CNS,7.64 µM
same,GI50,SR leukemia,2.97 µM
same,TGI,SR leukemia,> 100 µM
same,GI50,SW-620 colon,2.26 µM
same,TGI,SW-620 colon,10.9 µM
same,GI50,T-47D breast,1.85 µM
same,TGI,T-47D breast,6.93 µM
same,GI50,TK-10 renal,2.94 µM
same,TGI,TK-10 renal,10.9 µM
same,GI50,U251 CNS,2.2 µM
same,TGI,U251 CNS,5.98 µM
same,GI50,UACC-257 melanoma,2.48 µM
same,TGI,UACC-257 melanoma,7.97 µM
same,GI50,UACC-62 melanoma,1.33 µM
same,TGI,UACC-62 melanoma,2.84 µM
same,GI50,UO-31 renal,1.82 µM
same,TGI,UO-31 renal,7.43 µM
